Results reported in PubChem BioAssay AID1963449 (Molecular Pharmacology Branch, DTP, NCI, 2024).
Values joined by “and” are separate entries in the source; they are usually repeats but may differ in a detail not shown here. Equal entries are not always repeated.

System: 596521-263-R-J1-PDC complex spheroid growth
Assay: Anticancer human tumor 596521-263-R-J1-PDC patient-derived soft tissue sarcoma cell line growth inhibition [Asc]
Conditions: for viability, T/C: stronger effect = lower value
How it was run: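 Stromal components (HUVEC and hMSC) are co-assembled with the cancer cells into multicellular spheroids. Drugs are then added singly or paired, at concentrations falling by half-log increments from a clinically achievable maximum, capped at 10 microM without known Cmax.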
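Also: spheroids exposed to compounds for 7 days.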

SMILES: NC1CCC(NC2CC2c2ccccc2)CC1 (centres undefined) + CCN1C(C(=O)NC23CCC(C(=O)O)(CC2)CC3)C(c2cccc(Cl)c2F)C2(C(=O)Nc3cc(Cl)ccc32)C12CCCCC2
- IC50 (curve of first compound, second compound 0.00949 µM): > 100 nM
- IC50 (curve of first compound, second compound 0.03 µM): > 100 nM
- IC50 (curve of first compound, second compound 0.0949 µM): > 100 nM
- IC50 (curve of first compound, second compound 0.3 µM): > 100 nM
- IC50 (curve of first compound, second compound 0.949 µM): > 100 nM
- IC50 (curve of first compound, second compound 3 µM): > 100 nM
- viability, T/C (second compound 0.00949 µM, first compound 0.000316 µM): 98.8%
- viability, T/C (second compound 0.00949 µM, first compound 0.001 µM): 78.1%
- viability, T/C (second compound 0.00949 µM, first compound 0.00316 µM): 84.2%
- viability, T/C (second compound 0.00949 µM, first compound 0.01 µM): 88.9%
- viability, T/C (second compound 0.00949 µM, first compound 0.0316 µM): 83.7%
- viability, T/C (second compound 0.00949 µM, first compound 0.1 µM): 105%
- viability, T/C (second compound 0.03 µM, first compound 0.000316 µM): 84.2%
- viability, T/C (second compound 0.03 µM, first compound 0.001 µM): 85.3%
- viability, T/C (second compound 0.03 µM, first compound 0.00316 µM): 89.6%
- viability, T/C (second compound 0.03 µM, first compound 0.01 µM): 87.6%
- viability, T/C (second compound 0.03 µM, first compound 0.0316 µM): 82.5%
- viability, T/C (second compound 0.03 µM, first compound 0.1 µM): 88.7%
- viability, T/C (second compound 0.0949 µM, first compound 0.000316 µM): 95.3%
- viability, T/C (second compound 0.0949 µM, first compound 0.001 µM): 87.9%
- viability, T/C (second compound 0.0949 µM, first compound 0.00316 µM): 85%
- viability, T/C (second compound 0.0949 µM, first compound 0.01 µM): 84.5%
- viability, T/C (second compound 0.0949 µM, first compound 0.0316 µM): 89.1%
- viability, T/C (second compound 0.0949 µM, first compound 0.1 µM): 81.4%
- viability, T/C (second compound 0.3 µM, first compound 0.000316 µM): 87.7%
- viability, T/C (second compound 0.3 µM, first compound 0.001 µM): 87.7%
- viability, T/C (second compound 0.3 µM, first compound 0.00316 µM): 80.7%
- viability, T/C (second compound 0.3 µM, first compound 0.01 µM): 94.1%
- viability, T/C (second compound 0.3 µM, first compound 0.0316 µM): 85.4%
- viability, T/C (second compound 0.3 µM, first compound 0.1 µM): 87.8%
- viability, T/C (second compound 0.949 µM, first compound 0.000316 µM): 94.7%
- viability, T/C (second compound 0.949 µM, first compound 0.001 µM): 87.2%
- viability, T/C (second compound 0.949 µM, first compound 0.00316 µM): 87.9%
- viability, T/C (second compound 0.949 µM, first compound 0.01 µM): 97.3%
- viability, T/C (second compound 0.949 µM, first compound 0.0316 µM): 92.8%
- viability, T/C (second compound 0.949 µM, first compound 0.1 µM): 82.5%
- viability, T/C (second compound 3 µM, first compound 0.000316 µM): 80.9%
- viability, T/C (second compound 3 µM, first compound 0.001 µM): 83.2%
- viability, T/C (second compound 3 µM, first compound 0.00316 µM): 85.2%
- viability, T/C (second compound 3 µM, first compound 0.01 µM): 71%
- viability, T/C (second compound 3 µM, first compound 0.0316 µM): 75.9%
- viability, T/C (second compound 3 µM, first compound 0.1 µM): 82.7%

SMILES: Cc1nc(N2CCC3(CC2)COC(C)C3N)c(CO)nc1Sc1ccnc(N)c1Cl (centres undefined)
- viability, T/C (compound 0.00949 µM): 92.9% and 104% and 105%
- viability, T/C (compound 0.03 µM): 105% and 93.2% and 112%
- viability, T/C (compound 0.0949 µM): 95.7% and 91.3% and 95.2%
- viability, T/C (compound 0.3 µM): 96.7% and 100% and 87%
- viability, T/C (compound 0.949 µM): 88.2% and 85.2% and 73.8%
- viability, T/C (compound 3 µM): 64.9% and 62.4% and 62.7%
- IC50 (curve of compound): > 3000 nM
